Patent EP0052361A1, “Novel 16-membered macrolide compounds” (SANRAKU-OCEAN CO., LTD., priority 1980, dated 1982)
Values after ≈ are worked out from the molar mass of the structure shown. Read-outs that look alike come from different tables or passages of the source.

Legend:
[1] = test system: Staphylococcus aureus 209P; assay: MIC by tube dilution method in brain heart infusion broth; format: cell-based
Description: (§1) The minimum growth inhibitory concentrations (MIC) of the compounds (I) against various microorganisms were measured by a tube dilution method in a brain heart infusion broth (pH 7.5) as a medium.

[2] = test system: Klebsiella pneumoniae PCI602; assay: as above; format: cell-based
Description: as §1

[3] = test system: Bacillus subtilis NRRL B-558; assay: as above; format: cell-based
Description: as §1

[4] = test system: Staphylococcus aureus MS9861; assay: as above; format: cell-based
Description: as §1

[5] = test system: Corynebacterium bovis 1810; assay: as above; format: cell-based
Description: as §1

Sartina lutea PCI 1001 = assay: as above; format: cell-based
Description: as §1

[6] = test system: Mycoplasma gallisepticum KP-13; assay: as above; format: cell-based; settings: Mycoplasmoides gallisepticum
Description: as §1

Escherichia coli NIHJ = assay: as above; format: cell-based
Description: as §1

[7] = test system: Staphylococcus aureus MS10225; assay: as above; format: cell-based
Description: as §1

[8] = test system: Shigella dysenteriae JS 11910; assay: as above; format: cell-based; settings: JS11910, pH 7.5, read-out: Minimum growth inhibitory concentration
Description: as §1

[9] = Stability on standing at room temperature; format: physicochemical; settings: left to stand at room temperature for one month
Text: Stable even when left to stand at room temperature for one month.

[10] = set-up: species or system mice; settings: mouse, in vivo, po
Description: • (2) Concentration in the blood • (2-1) The concentration of the antibiotic YT-3927 of formula (I-a) in the blood was measured by bioassay with […] lutea using mice. […] Then, periodically, the concentration of the antibiotic YT-3927 in the blood was measured. The peak of the blood concentration was noted 1.5 to 2 hours after the administration, and at the peak, the concentration was […]. In contrast, in the same experiment with tylosin, the peak was noted 1.5 to 2 hours later, but the concentration was less than one-fifth of that of the antibiotic YT-3927. • (2-2) The concentration of each of the antibiotic YT-3927 derivatives of formula (I-b) in the blood was measured by bioassay with […] lutea using mice. […] The concentration of the derivative (I-b) in the blood was periodically measured. The concentration of each of the compounds (I-b) 2 hours after the administration is shown in Table 3. [formula] • (3) Toxicity

[11] = Staphylococcus aureus, 209P, pH 7.5, read-out: Antimicrobial activity (MIC) Staphylococcus aureus 209P
[12] = Klebsiella pneumoniae, PCI602, pH 7.5, read-out: Antimicrobial activity (MIC) Klebsiella pneumonae PCI602
[13] = Bacillus subtilis, NRRLB558, pH 7.5, read-out: Antimicrobial activity (MIC) Bacillus subtilis NRRL B558
[14] = MS9861, pH 7.5, read-out: Antimicrobial activity (MIC) Staphylococcus aureus MS9861

SMILES | MIC [1, 11] [µg/mL] | MIC [2, 12] [µg/mL] | MIC [3, 13] [µg/mL] | MIC [4, 14] [µg/mL] | further results
CCC1OC(=O)CC(O)C(C)C(OC2OC(C)C(OC3CC(C)(O)C(OC(=O)C(OC(C)=O)c4ccccc4)C(C)O3)C(N(C)C)C2O)C(CC=O)CC(C)C(=O)/C=C/C(C)=C/C1C (centres unmarked) | 0.8 (≈ 0.887 µM) | 25 (≈ 27.7 µM) | 0.8 (≈ 0.887 µM) | 3.1 (≈ 3.44 µM) | –
CCC1OC(=O)CC(O)C(C)C(OC2OC(C)C(OC3CC(C)(O)C(OC(=O)C4CCCCC4)C(C)O3)C(N(C)C)C2O)C(CC=O)CC(C)C(=O)/C=C/C(C)=C/C1C (centres unmarked) | 0.8 (≈ 0.957 µM) | 12.5 (≈ 15 µM) | 0.2 (≈ 0.239 µM) | 3.1 (≈ 3.71 µM) | –
CCC1OC(=O)CC(O)C(C)C(OC2OC(C)C(OC3CC(C)(OC(C)=O)C(OC(=O)C4CCCCC4)C(C)O3)C(N(C)C)C2O)C(CC=O)CC(C)C(=O)/C=C/C(C)=C/C1C (centres unmarked) | 1.6 (≈ 1.82 µM) | > 100 | 0.4 (≈ 0.456 µM) | 6.3 (≈ 7.17 µM) | –
CCC1OC(=O)CC(O)C(C)C(OC2OC(C)C(OC3CC(C)(O)C(OC(=O)Nc4ccccc4)C(C)O3)C(N(C)C)C2O)C(CC=O)CC(C)C(=O)/C=C/C(C)=C/C1C (centres unmarked) | 0.8 (≈ 0.947 µM) | 6.3 (≈ 7.46 µM) | 0.8 (≈ 0.947 µM) | 3.1 (≈ 3.67 µM) | –
CCC1OC(=O)CC(O)C(C)C(OC2OC(C)C(OC3CC(C)(O)C(OC4CCCCO4)C(C)O3)C(N(C)C)C2O)C(CC=O)CC(C)C(=O)/C=C/C(C)=C/C1C (centres unmarked) | 1.6 (≈ 1.98 µM) | 3.1 (≈ 3.83 µM) | 0.4 (≈ 0.494 µM) | 3.1 (≈ 3.83 µM) | –
CCC1OC(=O)CC(O)C(C)C(OC2OC(C)C(OC3CC(C)(O)C(O)C(C)O3)C(N(C)C)C2O)C(CC=O)CC(C)C(=O)C=CC(C)=CC1C (centres unmarked) [Antibiotic YT-3927, antibiotic YT-3927] | 0.4 (≈ 0.551 µM) | 3.1 (≈ 4.27 µM) | 0.4 (≈ 0.551 µM) | 3.1 (≈ 4.27 µM) | MIC ([1]; Staphylococcus aureus, 209P, pH 7.5, read-out: Minimum growth inhibitory concentration): 0.39 µg/mL (≈ 0.537 µM); MIC ([5]; Corynebacterium bovis, 1810, pH 7.5, read-out: Minimum growth inhibitory concentration): 0.39 µg/mL (≈ 0.537 µM); MIC (Sartina lutea PCI 1001; pH 7.5, read-out: Minimum growth inhibitory concentration): < 0.2 µg/mL; MIC ([6]; KP13, pH 7.5, read-out: Minimum growth inhibitory concentration): 0.02 µg/mL (≈ 0.0276 µM); MIC (Escherichia coli NIHJ; Escherichia coli, pH 7.5, read-out: Minimum growth inhibitory concentration): 25 µg/mL (≈ 34.4 µM); MIC ([7]; Staphylococcus aureus, MS10225, pH 7.5, read-out: Minimum growth inhibitory concentration): 0.78 µg/mL (≈ 1.07 µM); MIC ([2]; Klebsiella pneumoniae, PCI602, pH 7.5, read-out: Minimum growth inhibitory concentration): 3.12 µg/mL (≈ 4.3 µM); MIC ([3]; Bacillus subtilis, NRRLB558, pH 7.5, read-out: Minimum growth inhibitory concentration): 0.39 µg/mL (≈ 0.537 µM); MIC [8]: 1.56 µg/mL (≈ 2.15 µM); Stability [9]: Stable
CCC1OC(=O)CC(OC(C)=O)C(C)C(OC2OC(C)C(OC3CC(C)(OC(C)=O)C(OC(C)=O)C(C)O3)C(N(C)C)C2O)C(CC=O)CC(C)C(=O)C=CC(C)=CC1C (centres unmarked) [R1=COCH3; R2=COCH3; YR3=COCH3, 3,3",4"-triacetyl YT-3927] | 1.6 (≈ 1.88 µM) | 100 (≈ 117 µM) | 0.4 (≈ 0.469 µM) | 3.1 (≈ 3.64 µM) | –
CCC1OC(=O)CC(O)C(C)C(OC2OC(C)C(OC3CC(C)(OC(C)=O)C(OC(=O)CC(C)C)C(C)O3)C(N(C)C)C2O)C(CC=O)CC(C)C(=O)C=CC(C)=CC1C (centres unmarked) [R1=H; R2=COCH3; YR3=COCH2CH(CH3)2] | 0.8 (≈ 0.939 µM) | 25 (≈ 29.3 µM) | 0.8 (≈ 0.939 µM) | 1.6 (≈ 1.88 µM) | –
CCC1OC(=O)CC(O)C(C)C(OC2OC(C)C(OC3CC(C)(O)C(OC(=O)CC(C)C)C(C)O3)C(N(C)C)C2O)C(CC=O)CC(C)C(=O)C=CC(C)=CC1C (centres unmarked) [R1=H; R2=H; YR3=COCH2CH(CH3)2, 4"-isovaleryl YT-3927] | 0.4 (≈ 0.494 µM) | 6.3 (≈ 7.78 µM) | 0.4 (≈ 0.494 µM) | 1.6 (≈ 1.98 µM) | –
CC[C@H]1OC(=O)C[C@@H](O)[C@H](C)[C@@H](O[C@@H]2O[C@H](C)[C@@H](O[C@H]3C[C@@](C)(O)[C@@H](O)[C@H](C)O3)[C@H](N(C)C)[C@H]2O)[C@@H](CC=O)C[C@@H](C)C(=O)/C=C/C(C)=C/[C@@H]1CO[C@@H]1O[C@H](C)[C@@H](O)[C@@H](OC)[C@H]1OC [Tylosin, reference compound] | – | – | – | – | MIC ([1]; Staphylococcus aureus 209P, brain heart infusion broth pH 7.5, Table 2-1, read-out: Minimum growth inhibitory concentration): 0.78 µg/mL (≈ 0.851 µM); MIC ([1]; Staphylococcus aureus, 209P, Table 2-2, brain heart infusion broth pH 7.5, read-out: Antimicrobial activity (MIC) Staphylococcus aureus 209P): 0.8 µg/mL (≈ 0.873 µM); MIC ([5]; Corynebacterium bovis 1810, brain heart infusion broth pH 7.5, read-out: Minimum growth inhibitory concentration): < 0.2 µg/mL; MIC (Sartina lutea PCI 1001; Sartina lutea PCI 1001, brain heart infusion broth pH 7.5, read-out: Minimum growth inhibitory concentration): < 0.2 µg/mL; MIC ([6]; KP13, Mycoplasma gallisepticum KP-13, brain heart infusion broth pH 7.5, read-out: Minimum growth inhibitory concentration): 0.02 µg/mL (≈ 0.0218 µM); MIC (Escherichia coli NIHJ; Escherichia coli NIHJ, brain heart infusion broth pH 7.5, read-out: Minimum growth inhibitory concentration): 100 µg/mL (≈ 109 µM); MIC ([7]; Staphylococcus aureus MS10225 (resistant to tylosin), brain heart infusion broth pH 7.5, read-out: Minimum growth inhibitory concentration): 3.12 µg/mL (≈ 3.41 µM); MIC ([2]; Klebsiella pneumoniae PCI602, brain heart infusion broth pH 7.5, Table 2-1, read-out: Minimum growth inhibitory concentration): 25 µg/mL (≈ 27.3 µM); MIC ([2]; Klebsiella pneumoniae, PCI602, Table 2-2, brain heart infusion broth pH 7.5, read-out: Antimicrobial activity (MIC) Klebsiella pneumonae PCI602): 25 µg/mL (≈ 27.3 µM); MIC ([3]; Bacillus subtilis, NRRLB558, Table 2-2, brain heart infusion broth pH 7.5, read-out: Antimicrobial activity (MIC) Bacillus subtilis NRRL B558): 0.8 µg/mL (≈ 0.873 µM); MIC ([3]; NRRLB558, Bacillus subtilis NRRL B-558, brain heart infusion broth pH 7.5, Table 2-1, read-out: Minimum growth inhibitory concentration): 0.78 µg/mL (≈ 0.851 µM); MIC ([4]; MS9861, Table 2-2, brain heart infusion broth pH 7.5, read-out: Antimicrobial activity (MIC) Staphylococcus aureus MS9861): 6.3 µg/mL (≈ 6.88 µM); MIC [8]: 25 µg/mL (≈ 27.3 µM); peak concentration in the blood as a fraction of that of the antibiotic YT-3927 [10]: less than one-fifth

Further lines, with some results ahead:

MIC [1, 11] [µg/mL] | MIC [2, 12] [µg/mL] | MIC [3, 13] [µg/mL] | MIC [4, 14] [µg/mL] | SMILES | further results
0.4 (≈ 0.451 µM) | 3.1 (≈ 3.49 µM) | < 0.2 | 1.6 (≈ 1.8 µM) | CCC1OC(=O)CC(O)C(C)C(OC2OC(C)C(OC3CC(C)(OC(C)=O)C(OC(=O)Cc4cccnc4)C(C)O3)C(N(C)C)C2O)C(CC=O)CC(C)C(=O)C=CC(C)=CC1C (centres unmarked) | –
< 0.2 | 3.1 (≈ 3.6 µM) | 1.6 (≈ 1.86 µM) | 1.6 (≈ 1.86 µM) | CCC1OC(=O)CC(O)C(C)C(OC2OC(C)C(OC3CC(C)(O)C(OC(=O)C(O)c4ccccc4)C(C)O3)C(N(C)C)C2O)C(CC=O)CC(C)C(=O)C=CC(C)=CC1C (centres unmarked) | –
< 0.2 | 3.1 (≈ 3.52 µM) | 0.4 (≈ 0.454 µM) | 6.3 (≈ 7.16 µM) | CCC1OC(=O)CC(O)C(C)C(OC2OC(C)C(OC3CC(C)(O)C(OS(=O)(=O)c4ccc(C)cc4)C(C)O3)C(N(C)C)C2O)C(CC=O)CC(C)C(=O)/C=C/C(C)=C/C1C (centres unmarked) | –
< 0.2 | 3.1 (≈ 3.53 µM) | < 0.2 | 1.6 (≈ 1.82 µM) | CCC1OC(=O)CC(O)C(C)C(OC2OC(C)C(OC3CC(C)(O)C(OC(=O)CSc4ccncc4)C(C)O3)C(N(C)C)C2O)C(CC=O)CC(C)C(=O)C=CC(C)=CC1C (centres unmarked) | –
0.2 (≈ 0.235 µM) | 3.1 (≈ 3.65 µM) | 0.4 (≈ 0.471 µM) | 1.6 (≈ 1.88 µM) | CCC1OC(=O)CC(O)C(C)C(OC2OC(C)C(OC3CC(C)(O)C(OC(=O)Cc4cccs4)C(C)O3)C(N(C)C)C2O)C(CC=O)CC(C)C(=O)C=CC(C)=CC1C (centres unmarked) | –
< 0.2 | 6.3 (≈ 6.85 µM) | < 0.2 | 0.8 (≈ 0.87 µM) | CCC1OC(=O)CC(O)C(C)C(OC2OC(C)C(OC3CC(C)(OC(C)=O)C(OC(=O)CSc4ccncc4)C(C)O3)C(N(C)C)C2O)C(CC=O)CC(C)C(=O)C=CC(C)=CC1C (centres unmarked) | –
< 0.2 | 1.6 (≈ 1.89 µM) | < 0.2 | 0.8 (≈ 0.947 µM) | CCC1OC(=O)CC(O)C(C)C(OC2OC(C)C(OC3CC(C)(O)C(OC(=O)Cc4cccnc4)C(C)O3)C(N(C)C)C2O)C(CC=O)CC(C)C(=O)C=CC(C)=CC1C (centres unmarked) | –
0.4 (≈ 0.469 µM) | 25 (≈ 29.3 µM) | 0.8 (≈ 0.939 µM) | 6.3 (≈ 7.39 µM) | CCC1OC(=O)CC(OC(C)=O)C(C)C(OC2OC(C)C(OC3CC(C)(O)C(OC(=O)CC(C)C)C(C)O3)C(N(C)C)C2O)C(CC=O)CC(C)C(=O)C=CC(C)=CC1C (centres unmarked) [R1=COCH3; R2=H; YR3=COCH2CH(CH3)2, 3-acetyl-4"-isovaleryl YT-3927] | –
